Assay results published in patent US11261186B2, “Biaryl derivative as GPR120 agonist” (LG CHEM, LTD., priority 2014, dated 2022).

What follows are molecules tested against T1, hGPR120 (Homo sapiens, UniProt Q5NUL3) (assay: Measurement of Activity of GPR120 Agonist (Cell-Based Assay), Calcium 5 dye fluorescence). Settings: CHO-K1 cells expressing Ga16 and hGPR120.
T1 construct: expressed in transfected cells; host or cells: CHO-K1
T1 sequence (Q5NUL3 1-361): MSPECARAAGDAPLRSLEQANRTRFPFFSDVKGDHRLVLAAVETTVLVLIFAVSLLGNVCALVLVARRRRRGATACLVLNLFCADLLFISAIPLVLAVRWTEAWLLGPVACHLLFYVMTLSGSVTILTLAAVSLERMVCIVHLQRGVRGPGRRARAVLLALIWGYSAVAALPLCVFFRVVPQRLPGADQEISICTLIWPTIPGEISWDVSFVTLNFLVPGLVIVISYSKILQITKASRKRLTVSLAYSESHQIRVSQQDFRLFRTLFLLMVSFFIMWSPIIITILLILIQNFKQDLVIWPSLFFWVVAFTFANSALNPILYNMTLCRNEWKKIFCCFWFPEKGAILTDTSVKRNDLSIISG
Summary of the method: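 Gα16/hGPR120 CHO-K1; 18 h plating, 37 °C, 5% CO2; Calcium 5 dye load 1 h; agonist serial dilution, 0.5% DMSO final; fluor Ex485/Em525; response as % of 1% DMSO vehicle.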

Row | EC50 [nM] | Structure (SMILES)
1 | < 200 | O=C(O)CCCC1(c2c(F)cc(-c3cccnc3OC3CCCC3)cc2F)CC1 [Example 166, 4-{1-[4-(2-cyclopentyloxy-pyridin-3-yl)-2,6-difluoro-phenyl]-cyclopropyl}-butyric acid]
2 | 200 to 2000 | O=C(O)CCCC1(c2c(F)cc(-c3cccnc3SC3CCC3)cc2F)CC1 [Example 167, 4-{1-[4-(2-cyclobutylsulfanyl-pyridin-3-yl)-2,6-difluoro-phenyl]-cyclopropyl}-butyric acid]
3 | 200 to 2000 | O=C(O)CCCC1(c2c(F)cc(-c3cccnc3OCC3CCC3)cc2F)CC1 [Example 169, 4-{1-[4-(2-cyclobutylmethoxy-pyridin-3-yl)-2,6-difluoro-phenyl]-cyclopropyl}-butyric acid]
4 | < 200 | O=C(O)CCCC1(c2c(F)cc(-c3cccc(OCC4CC4)n3)cc2F)CC1 [Example 170, 4-{1-[4-(6-cyclopropylmethoxy-pyridin-2-yl)-2,6-difluoro-phenyl]-cyclopropyl}-butyric acid]
5 | 2000 to 20000 | O=C(O)COCC(F)(F)c1ccc(-c2cccnc2OC2CCCC2)cc1 [Example 172, {2-[4-(2-cyclopentyloxy-pyridin-3-yl)-phenyl]-2,2-difluoro-ethoxy}-acetic acid]
6 | 2000 to 20000 | O=C(O)COCC(F)(F)c1ccc(-c2cccnc2SC2CCC2)cc1 [Example 173, {2-[4-(2-cyclobutylsulfanyl-pyridin-3-yl)-phenyl]-2,2-difluoro-ethoxy}-acetic acid]
7 | < 200 | O=C(O)CCC1CC1c1c(F)cc(-c2cccnc2OC2CCCC2)cc1F (stereo not shown) [Example 175, 3-{2-[4-(2-cyclopentyloxy-pyridin-3-yl)-2,6-difluoro-phenyl]-cyclopropyl}-propanoic acid]
8 | < 200 | O=C(O)CCC1CC1c1c(F)cc(-c2cccnc2SC2CCC2)cc1F (stereo not shown) [Example 176, 3-{2-[4-(2-cyclobutylsulfanyl-pyridin-3-yl)-2,6-difluoro-phenyl]-cyclopropyl}-propanoic acid]
9 | < 200 | O=C(O)CCCC(F)(F)c1ccc(-c2cccnc2OC2CCCC2)cc1 [Example 177, 5-[4-(2-cyclopentyloxy-pyridin-3-yl)-phenyl]-5,5-difluoro-pentanoic acid]
10 | < 200 | O=C(O)CCCC(F)(F)c1ccc(-c2cccnc2SC2CCC2)cc1 [Example 178, 5-[4-(2-cyclobutylsulfanyl-pyridin-3-yl)-phenyl]-5,5-difluoro-pentanoic acid]
11 | < 200 | CCCSc1ncccc1-c1cc(F)c(C2CC2CCC(=O)O)c(F)c1 (stereo not shown) [Example 179, 3-{2-[2,6-difluoro-4-(2-propylsulfanyl-pyridin-3-yl)-phenyl]-cyclopropyl}-propanoic acid]
12 | < 200 | O=C(O)CCCC(F)(F)c1ccc(-c2cccnc2OCC2CC2)cc1 [Example 181, 5-[4-(2-cyclopropylmethoxy-pyridin-3-yl)-phenyl]-5,5-difluoro-pentanoic acid]
13 | < 200 | O=C(O)CCC1CC1c1c(F)cc(-c2cccnc2SC2CCCC2)cc1F (stereo not shown) [Example 182, 3-{2-[4-(2-cyclopentylsulfanyl-pyridin-3-yl)-2,6-difluoro-phenyl]-cyclopropyl}-propanoic acid]
14 | < 200 | O=C(O)CCC1CC1c1c(F)cc(-c2cccnc2NC2CCCC2)cc1F (stereo not shown) [Example 183, 3-{2-[4-(2-cyclopentylamino-pyridin-3-yl)-2,6-difluoro-phenyl]-cyclopropyl}-propanoic acid]
15 | < 200 | O=C(O)CCCC(F)(F)c1ccc(-c2cccnc2SC2CCCC2)cc1 [Example 184, 5-[4-(2-cyclopentylsulfanyl-pyridin-3-yl)-phenyl]-5,5-difluoro-pentanoic acid]

Further lines, the molecule ahead of its results:

Row | Structure (SMILES) | EC50 [nM]
16 | O=C(O)CCCSc1ccc(-c2cccc3c2OC2(CCCC2)O3)cc1 [Example 156, 4-(4-spiro[1,3-benzodioxol-2,1′-cyclopentane]-4-ylphenyl)sulfanylbutanoic acid] | 200 to 2000
17 | O=C(O)CCCSc1ccc(-c2cccc3c2OC2(CCCC2)O3)cc1F [Example 157, 4-(2-fluoro-4-spiro[1,3-benzodioxol-2,1′-cyclopentan]-4-yl-phenyl)sulfanylbutanoic acid] | < 200
18 | CC(C)Oc1ncccc1-c1ccc(C(C)(C)CCCC(=O)O)cc1 [Example 158, 5-[4-(2-isopropoxy-pyridin-3-yl)-phenyl]-5-methyl-hexanoic acid] | 200 to 2000
19 | CC(C)Sc1ncccc1-c1ccc(C(C)(C)CCCC(=O)O)cc1 [Example 159, 5-[4-(2-isopropylsulfanyl-pyridin-3-yl)-phenyl]-5-methyl-hexanoic acid] | < 200
20 | CC(C)(CCCC(=O)O)c1ccc(-c2cccnc2OC2CCCC2)cc1 [Example 160, 5-[4-(2-cyclopentyloxy-pyridin-3-yl)-phenyl]-5-methyl-hexanoic acid] | < 200
21 | CC(C)(CCCC(=O)O)c1ccc(-c2cccnc2OC2CCCC2)cc1F [Example 161, 5-[4-(2-cyclopentyloxy-pyridin-3-yl)-2-fluoro-phenyl]-5-methyl-hexanoic acid] | 200 to 2000
22 | CC(C)(CCCC(=O)O)c1c(F)cc(-c2cccnc2OC2CCCC2)cc1F [Example 162, 5-[4-(2-cyclopentyloxy-pyridin-3-yl)-2,6-difluoro-phenyl]-5-methyl-hexanoic acid] | 200 to 2000
23 | CC(C)(CCCC(=O)O)c1ccc(-c2cccnc2SC2CCCC2)cc1 [Example 163, 5-[4-(2-cyclopentylsulfanyl-pyridin-3-yl)-phenyl]-5-methyl-hexanoic acid] | 200 to 2000
24 | CC(C)(CCCC(=O)O)c1c(F)cc(-c2cccnc2SC2CCC2)cc1F [Example 164, 5-[4-(2-cyclobutylsulfanyl-pyridin-3-yl)-2,6-difluoro-phenyl]-5-methyl-hexanoic acid] | 200 to 2000
25 | CC(C)(CCCC(=O)O)c1ccc(-c2cccnc2SC2CCC2)cc1 [Example 165, 5-[4-(2-cyclobutylsulfanyl-pyridin-3-yl)-phenyl]-5-methyl-hexanoic acid] | < 200
26 | O=C(O)CCCC1(c2c(F)cc(-c3cccc(OC4CCC4)n3)cc2F)CC1 [Example 168, 4-{1-[4-(6-cyclobutoxy-pyridin-2-yl)-2,6-difluoro-phenyl]-cyclopropyl}-butyric acid] | < 200
27 | CC(CCCC(=O)O)c1c(F)cc(-c2cccc3c2OC(F)(F)O3)cc1F (stereo not shown) [Example 171, 5-[4-(2,2-difluoro-benzo[1,3]dioxol-4-yl)-2,6-difluoro-phenyl]-hexanoic acid] | < 200
28 | O=C(O)COCC(F)(F)c1ccc(-c2cccc(OC3CCC3)n2)cc1 [Example 174, {2-[4-(6-cyclobutoxy-pyridin-2-yl)-phenyl]-2,2-difluoro-ethoxy}-acetic acid] | 200 to 2000
29 | O=C(O)CCC1CC1c1c(F)cc(-c2cccc(OC3CCC3)n2)cc1F (stereo not shown) [Example 180, 3-{2-[4-(6-cyclobutoxy-pyridin-2-yl)-2,6-difluoro-phenyl]-cyclopropyl}-propanoic acid] | < 200
30 | O=C(O)CCCC(F)(F)c1ccc(-c2cccnc2OC2CCC2)cc1 [Example 185, 5-[4-(2-cyclobutoxy-pyridin-3-yl)-phenyl]-5,5-difluoro-pentanoic acid] | < 200
31 | O=C(O)CCCC(F)(F)c1ccc(-c2cccc(OC3CCC3)n2)cc1 [Example 186, 5-[4-(6-cyclobutoxy-pyridin-2-yl)-phenyl]-5,5-difluoro-pentanoic acid] | < 200
